Test results reported in patent publication US12630542B2, “Compounds and their use as therapeutically active substances in the treatment and/or prevention of diseases involving the retinal pigment epithelium” (ENDOGENA THERAPEUTICS, INC., priority 2020, dated 2026).

System: iPSC-fRPE cells
Experiment: Compound screen for RPE pigmentation in iPSC-fRPE cells (light absorbance at 510 nm)
Format: cell-based, human
Conditions: for Relative Pigmentation: test compound 5 μM in 0.1% DMSO, 32 days, absorbance at 510 nm, relative to plate internal DMSO controls (control = 1); for pigmentation of RPE cells / activity, result in words: qualitative statement
Protocol: Induced pluripotent stem cell-derived fetal RPE (iPSC-fRPE) cells acquired from the University of California, Santa Barbara, were generated from human fetal RPE cells that were isolated and reprogramed to iPSC, then differentiated and sorted for cellular markers to collect RPE progenitors. Vials were transported frozen on dry ice and stored in minus 80° C.
For the phenotypic screens, iPSC-fRPE cells were thawed and cultured in Matrigel-coated flasks with N1VA media containing 1×MEM solution supplemented with 2.2 g/L Sodium Bicarbonate, 0.25 mg/ml Taurine, 0.02 ug/ml Hydrocortisone, 0.013 ug/ml Triiodo Thyronine, 0.1 ug/ml Lipoic acid, 1% MEM Non-Essential Amino Acids, 1% Penicillin/Streptomycin, 2% Neurocult SM1 supplement and 1% N1 supplement. For the initial cultures, Thiazovivin was added to the media at 2 uM for the first 24 hr of incubation, after which the media was replaced with fresh N1VA media for additional three-day incubation at 37° C. with 5% CO2.
iPSC-fRPE cells were plated with N1VA media at a density of 10,000 cells per well in Matrigel-coated 96-well plates and cultured for 24 hr prior to the treatment with test compounds at a final concentration of 5 μM in 0.1% DMSO. Internal controls for each test plate were (a) 0.1% DMSO as a negative control and (b) 0.1% DMSO+10 ng/ml human recombinant bFGF (STEMCELL) as a positive control. To identify hits that promote RPE pigmentation, cells were maintained for a period of 32 days and treated with medium containing the test or control compounds according to the media exchange regimen (FIG. 1). The degree of pigmentation was quantified by measuring the light absorbance at 510 nm with Cytation5 imaging reader (BIOTEK). Compounds that increased the normalized absorbance endpoint by more than three standard deviations over the average DMSO readout per plate were considered as hits. Pigmentation values are finally reported relative to plate internal DMSO controls.

Compound	Relative Pigmentation	pigmentation of RPE cells / activity, result in words
O=C(Nc1ccc(-c2cnco2)c(Cl)c1)C1Cc2ccccc2CO1 (racemic) [Compound 3, N-(3-chloro-4-(oxazol-5-yl)phenyl)isochromane-3-carboxamide]	1.66	
O=C(Nc1ccc(-c2cnco2)c(Cl)c1)C1CCOc2ccccc21 (racemic) [Compound 4, N-(3-chloro-4-(oxazol-5-yl)phenyl) chromane-4-carboxamide]	2.65	
O=C(Nc1ccc(-c2cnco2)c(Cl)c1)C1CCc2ccccc21 (racemic) [Compound 6, N-(3-chloro-4-(oxazol-5-yl)phenyl)-2,3-dihydro-1H-indene-1-carboxamide]	1.86	
O=C(Nc1ccc(-c2cnco2)c(Cl)c1)C1COc2ccccc2C1 (single isomer, unassigned; (+)) [Compound 2, (+)-N-(3-chloro-4-(1,3-oxazol-5-yl)phenyl)chromane-3-carboxamide]	1.68	
O=C(Nc1ccc(-c2cnco2)c(Cl)c1)C1COc2ccccc2C1 (single isomer, unassigned; (-)) [Compound 1, (−)-N-(3-chloro-4-(1,3-oxazol-5-yl)phenyl)chromane-3-carboxamide]	3.05	excellent results
O=C(Nc1ccc(-c2cnco2)c(Cl)c1)C1Cc2ccccc2C1 [Compound 7, N-(3-chloro-4-(oxazol-5-yl)phenyl)-2,3-dihydro-1H-indene-2-carboxamide]	2.92	excellent results
N-(3-chloro-4-(oxazol-5-yl)phenyl)-1,2,3,4-tetrahydronaphthalene-2-carboxamide [Compound 5]	1.18	
